Measurements: patent publication US5670506A, “Halogen, isothiocyanate or azide substituted xanthines” (Cell Therapeutics, Inc., priority 1993, dated 1997)
Entries after “also recorded” stand apart in the source; their conditions may differ.

Legend:
Format in all cases: cell-based
[1] = tested on: mast cells; test: mast cell degranulation, serotonin release assay; details: 100 μM
From the text: A serotonin release assay is utilized to study the utility of the inventive compounds for treatment of asthma and allergy. This assay measures mast cell degranulation, which is an early phase reaction to allergen challenge. Mast cells grown in tissue culture are first loaded with ^3 H serotonin, which is incorporated into the granules in the cells. The mast cells are sensitized with antigen specific monoclonal IgE, and then triggered to degranulate with the specific antigen (dinitrophenol bound to BSA (DNP)). When the cells degranulate, ^3 H Serotonin is released into the medium, and can be measured directly. The ability of the inventive compounds to inhibit the degranulation response is determined by the decrease in ^3 H Serotonin released in the presence of drug and is represented as % INHIBITION. The IC50 of any given compound is determined by the ability of that compound to inhibit degranulation by 50%.
Specifically, the serotonin release assay seeds 2×10^5 cells in 0.5 ml medium in duplicate for spontaneous release, IgE+DNP, IgE+DNP+EtOH (vehicle control), and inventive compounds. One μCi [^3H ]-Serotonin/ml (i.e., 0.5 μCi/well) (NEN Research Products, cat. #NET-398 Hydroxytryptamine Binoxalate, 5-[1,2-^3 H(N)]-(Serotonin Binoxalate, [1,2-^3 H(N)]-)) and 1 μl/ml IgE is added. The cells are incubated for 18 hours at 37° C. in 5% CO2, washed twice with 0.5 ml Isotonic Buffer (25 mM disodium PIPES pH 7.1,100 mM NaCl, 5 mM KCl, 5 mM glucose, 0.4 mM MgCl2, 1 mM CaCl2, 0.1% BSA), and sterile filtered. 250 μl Isotonic Buffer is added per well and the plates are equilibrated in an incubator for about 10 min. Drug is added and cells are activated with 40 ng/ml DNP-BSA (1 mg/ml Diluted 1:200 in Isotonic Buffer) for 45 minutes using 2 μl/250 μl. Spontaneous release is determined in incubated cells with 250 μl Isotonic Buffer for 45 minutes and the reaction is stopped by removing supernatant and centrifuging at ~4000 rpm in microfuge for 15 seconds to remove any detached cells. Released radiolableled serotonin is counted. To determine amount of ^3 H-serotonin incorporated into the cells, (a) remove Isotonic Buffer and lyse cells by adding 250 μl 1% Triton-X100 in PBS, (b) add to 5 ml scintillation fluid, (c) wash 2× with Triton/PBS, and (d) add washes to scintillation tube. Percent serotonin release is calculated by dividing the amount of released serotonin by the sum of incorporated plus released serotonin and correcting for spontaneous released serotonin. Compound inhibition is calculated by dividing the percent serotonin release in the presence of a compound by the percent serotonin release in the absence of the compound.
This assay is described above and provides an in vitro model for an allergy and asthma therapeutic compound.

[2] = tested on: human stromal cells; test: inhibition of proliferation of human stromal cells stimulated with PDGF; details: FIG. 7; 50 ng/ml PDGF-BB, in words
Description: (§1) This assay is a model for restenosis and treatment of atherosclerosis and coronary artery disease. Stromal cells were starved in serum-free media for one day and then stimulated with 50 ng/ml PDGF-BB. The drags were added at the indicated concentrations one hour prior to PDGF stimulation. Tritiated thymidine was added for one day at the time of PDGF stimulation and the cells were harvested and counted by liquid scintillation counting 24 hrs later. Background counts (i.e., starved cells) were approximately 1% of control levels.
Another assay for measuring activity of the inventive compounds involves determining PDGF (platelet derived growth factor) proliferative response using human-derived stromal cells. Human stromal cells are plated (e.g., about 2000 cells per well) in defined media (e.g., 69% McCoy's, 12.5% fetal calf serum, 12.5% horse serum, 1% antibiotics, 1% glutamine, 1% vitamin supplement, 0.8% essential amino acids, 1% sodium pyruvate, 1% sodium bicarbonate, 0.4% non-essential amino acids and 0.36% hydrocortisone). Two to three days later, the stromal cells are starved in serum-free media. Twenty four hours later, the cells are treated with a stimulating agent, such as PDGF-AA, PDGF-BB or basic FGF (fibroblast growth factor) with or without IL-1α or TNF, and tritiated thymidine. Cell proliferation is determined by liquid scintillation counting.
as §1, with “drugs” for “drags”

[3] = tested on: CMV promoter activity in transformed (adenovirus) cells; test: CMV promoter assay (gene transcription and translation, cytotoxic activity); details: read-out: IC50 (μM), CMV promoter assay
From the text: This example illustrates data regarding proliferative activity of various inventive compounds for inducting CMV promoter activity. The CMV promoter assay measures gene transcription and translation activity wherein any active compounds will nave cytotoxic activity to inhibit cellular protein synthesis machinery in transformed (adenovirus) cells.

[4] = tested on: transformed cells (Ras 3T3) and normal 3T3 cells; test: cytotoxicity in transformed and normal 3T3 cells; details: FIG. 9; five compounds
Description: A similar experiment is shown in FIG. 9 for five inventive compounds (see Table 1 […] for chemical names) showing differential cytotoxicity for the same normal and transformed cells.
Each inventive compound is investigated for cytotoxicity to determine appropriate doses for biological activity assays and to prevent cytotoxic reactions in in vitro assays when characterizing activity. Cells (e.g., NIH-3T3, Ras transformed 3T3 cells, malignant melanoma LD2 cells, etc.) are added to microtiter plates and drug is added about two days after plating. Cell viability is determined using a fluorescent viability stain (e.g., 2',7'-bis-(2-carboroxyethyl)-5-(and -6)-carboxyfluorescein acetoxymethyl ester, BCECF excitation 488 nm and emission 525 nm) 24, 48 or 72 hours after addition of the drug.
This example illustrates a comparison of cytotoxicity determinations for CT1595 in transformed cells (Ras 3T3) and in normal 3T3 cells at drug doses of 1, 10 and 100 μM in in vitro cell culture conditions (FIG. 8). […] A similar experiment is shown in FIG. 9 for five inventive compounds (see Table 1 above for chemical names) showing differential cytotoxicity for the same normal and transformed cells.

[5] = tested on: TNF release from monocytes in whole blood; test: ex vivo human TNF model, LPS-mediated TNF release in whole blood; details: FIG. 14
Description: (§2) This model adds LPS to whole blood (normal human volunteers) to trigger a dose-dependent synthesis and extracellular release of TNF according to Desch et al. (Lymphokine Res. 8:141, 1989). The ex vivo model examines whether LPS-mediated release of TNF from monocytes in whole blood can be block by an inventive compound.
An ex vivo human sepsis model is described in Desch et al., Lymphokine Res. 8:141, 1989 and in Ooi et al., J. Exp. Med. 174:649, 1991. Briefly, whole blood from humans is incubated with LPS (endotoxin). TNF released from cells (mostly from monocytes) is measured. The inventive compounds lower TNF levels as compared with untreated controls in this model.
as §2, with “This example illustrates a comparative experiment comparing CT1595, CT1529 and CT2519 in an ex vivo human TNF model described herein. This assay is a predictive model for treatment and prevention of septic shock and sepsis syndrome. This” for “This”

| Compound | inhibition at 100 µM [1] [%] | inhibition of human stromal cell proliferation [2] | IC50 [3] [µM] | cytotoxic activity, normal and transformed 3T3 cells [4] | block of LPS-mediated TNF release [5] |
| --- | --- | --- | --- | --- | --- |
| CC(F)CCCCn1c(=O)c2c(ncn2C)n(C)c1=O (stereo not shown) [CT1577, 1-(5-fluorohexyl)-3,7-dimethylxanthine] | 46 | strongly inhibit proliferation | > 500 |  |  |
| Cn1cnc2c1c(=O)n(CCCCCCOC(=O)CCl)c(=O)n2C [CT1527, 1-(6-(chloroacetoxy)hexyl)-3,7-dimethylxanthine] |  |  | 200 |  |  |
| CC(=O)OC(CBr)CCCCCCn1c(=O)c2c(ncn2C)n(C)c1=O (stereo not shown) [CT1514, 1-(7-acetoxy-8-bromooctyl)-3,7-dimethylxanthine] |  | strongly inhibit proliferation | > 500 |  |  |
| CC(CCCCn1c(=O)c2c(ncn2C)n(C)c1=O)OC(=O)CCl (stereo not shown) [CT1529, 1-(5-(chloroacetoxy)hexyl)-3,7-dimethylxanthine] |  |  | 100 | significant cytotoxic activity | could block TNF release in a dose-dependent fashion; also recorded: most effective agent at lower doses |
| CC(=O)OC(CBr)CCCCn1c(=O)c2ccccc2n(C)c1=O (stereo not shown) [CT1205, 3-(5-acetoxy-6-bromohexyl)-1-methylbenzoyleneurea] |  |  | 200 |  |  |
| CC(=O)OC(CBr)CCCCCCCn1c(=O)c(C)cn(C)c1=O (stereo not shown) [CT1908, 3-(8-acetoxy-9-bromononyl)-1-methylthymine] |  |  | 50 |  |  |
| Cn1cnc2c1c(=O)n(CCCCC(O)CN=[N+]=[N-])c(=O)n2C (stereo not shown) [CT1517, 1-(6-azido-5-hydroxyhexyl)-3,7-dimethylxanthine] |  | strongly inhibit proliferation | > 500 |  |  |
| CC(=O)OC(CBr)CCCCCCCCn1c(=O)c2c(ncn2C)n(C)c1=O (stereo not shown) [CT1583, 1-(9-acetoxy-10-bromodecyl)-3,7-dimethylxanthine] |  | strongly inhibit proliferation | > 500 |  |  |
| Cn1cnc2c1c(=O)n(CCCCCCCl)c(=O)n2C [CT1525, 1-(6-chlorohexyl)-3,7-dimethylxanthine] |  |  | > 500 |  |  |
| Cn1cnc2c1c(=O)n(CCCCCCBr)c(=O)n2C [CT1589, 1-(6-bromohexyl)-3,7-dimethylxanthine] | 53 | strongly inhibit proliferation | 125 |  |  |
